The target of this assay is T1, HMG-CoA reductase (Rattus norvegicus, UniProt P51639).
T1 construct: from tissue; inferred from the cited J. Med. Chem. 1985, 28, 347
T1 sequence (P51639 1-887): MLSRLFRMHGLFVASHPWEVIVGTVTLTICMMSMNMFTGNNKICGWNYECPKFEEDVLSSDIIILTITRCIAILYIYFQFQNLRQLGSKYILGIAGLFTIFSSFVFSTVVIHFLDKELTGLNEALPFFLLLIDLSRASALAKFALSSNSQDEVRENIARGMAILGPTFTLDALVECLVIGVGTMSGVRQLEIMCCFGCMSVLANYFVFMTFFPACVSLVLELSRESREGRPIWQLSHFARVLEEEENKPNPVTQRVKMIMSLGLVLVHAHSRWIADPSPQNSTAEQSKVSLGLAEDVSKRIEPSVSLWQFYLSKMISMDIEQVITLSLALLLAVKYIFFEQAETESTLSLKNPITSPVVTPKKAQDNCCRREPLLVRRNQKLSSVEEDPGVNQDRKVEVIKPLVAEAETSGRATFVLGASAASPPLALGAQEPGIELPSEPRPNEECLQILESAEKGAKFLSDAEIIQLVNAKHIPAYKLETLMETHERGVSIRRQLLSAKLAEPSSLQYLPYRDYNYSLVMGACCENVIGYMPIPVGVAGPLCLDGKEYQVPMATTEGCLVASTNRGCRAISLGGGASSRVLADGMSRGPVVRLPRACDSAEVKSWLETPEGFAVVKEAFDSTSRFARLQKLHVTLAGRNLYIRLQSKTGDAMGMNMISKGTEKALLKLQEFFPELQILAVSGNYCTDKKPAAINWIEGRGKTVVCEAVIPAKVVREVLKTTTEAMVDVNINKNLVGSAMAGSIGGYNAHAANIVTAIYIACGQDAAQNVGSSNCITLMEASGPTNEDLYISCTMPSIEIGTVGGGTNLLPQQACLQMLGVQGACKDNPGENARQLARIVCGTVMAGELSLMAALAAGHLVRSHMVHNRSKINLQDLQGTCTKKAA
Description: intrinsic HMG-CoA reductase inhibition activity, in vitro protocol of J. Med. Chem., 1985, 28, page 347. The assay is classed as biochemical. The following applies: tested as the potassium salt. On the procedure:
The intrinsic HMG-CoA reductase inhibition activity of the claimed compounds is measured in the in vitro protocol described is J. Med. Chem., 1985, 28, page 347.

For `C[C@@H]1CC[C@H]2C(=CC(O)[C@H](C)[C@@H]2CC[C@@H](O)C[C@@H](O)CC(=O)O)C1` (stereo partly shown), the IC50 is 5.87 µM.

The values above are taken from patent publication US4719229A, “Antihypercholesterolemic agents” (Merck & Co., Inc., priority 1987, dated 1988).
